Experimental data as given in US20150031572A1, “MEANS AND METHODS FOR ASSESSING NEURONAL TOXICITY” (priority 2012, published 2015).
Marks after values point to notes of the source that are not given here.

What was measured:
[1] = Plasma metabolite profiling (GC-MS, LC-MS, SPE-LC-MS) of rats dosed once daily over 28 days; treatment ratios versus untreated control; type: in vivo, rat; details: for 4-Hydroxyphenylpyruvate, ratio versus control / Glycine, ratio versus control / Phosphatidylcholine (C18:0,C18:2), ratio versus control / Serine, ratio versus control / TAG (C16:0,C18:2), ratio versus control / TAG (C18:1,C18:2), ratio versus control / TAG (C18:2,C18:2), ratio versus control / Threonine, ratio versus control / Tyrosine, ratio versus control / gamma-Linolenic acid (C18:cis[6,9,12]3), ratio versus control / 5-Oxoproline, ratio versus control / Glutamine, ratio versus control / Lysine, ratio versus control / Citrulline, ratio versus control / Phenylalanine, ratio versus control / Creatinine, ratio versus control: plasma; for 5-Oxoproline, plasma metabolite ratio versus control / Alanine, plasma metabolite ratio versus control / Arginine (second line of the table), plasma metabolite ratio versus control / Arginine, plasma metabolite ratio versus control / Citrulline, plasma metabolite ratio versus control / Glutamine, plasma metabolite ratio versus control / Proline, plasma metabolite ratio versus control / Tyrosine, plasma metabolite ratio versus control: high dose; for Creatinine, ratio versus control: Table 12a
Outline: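 Male and female rats (5/sex/group) dosed once daily for 28 days; fasted anaesthetized animals bled retro-orbitally (EDTA plasma) on days 7, 14, 28, stored −80 °C under N2. Polar and lipid fractions profiled by GC-MS (derivatized), LC-MS/MRM; steroids by online SPE-LC-MS. Pool-normalized data; treatment ratios vs sex-matched controls, Welch test p-values.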

[2] = rats exposed to sulcotrione; cited from earlier work
[3] = female rats, day 7, high dose, Table 9a
[4] = female rats, day 7, high dose, Table 9b
[5] = female rats, day 14, high dose, Table 9a
[6] = female rats, day 14, high dose, Table 9b
[7] = female rats, day 28, high dose, Table 9a
[8] = female rats, day 28, high dose, Table 9b
[9] = male rats, day 7, high dose, Table 9c
[10] = male rats, day 7, high dose, Table 9d
[11] = male rats, day 14, high dose, Table 9c
[12] = male rats, day 14, high dose, Table 9d
[13] = male rats, day 28, high dose, Table 9c
[14] = male rats, day 28, high dose, Table 9d

## Cn1ncc(C(=O)c2ccc(S(C)(=O)=O)c(C3=NOCC3)c2Cl)c1O [[3-(4,5-dihydro-isoxazol-3-yl)-4-methylsulfonyl-2-chlorphenyl](5-hydroxy-1-methyl-1H-pyrazol-4-yl)methanone]
[1]; [3]
  4-Hydroxyphenylpyruvate, ratio versus control: 26.68*
  Glycine, ratio versus control: 1.37*
  Phosphatidylcholine (C18:0,C18:2), ratio versus control: 1.12*
  Serine, ratio versus control: 1.16*
  TAG (C16:0,C18:2), ratio versus control: 2.56*
  TAG (C18:1,C18:2), ratio versus control: 2.72*
  TAG (C18:2,C18:2), ratio versus control: 3.93*
  Threonine, ratio versus control: 1.16
  Tyrosine, ratio versus control: 16.36*
  gamma-Linolenic acid (C18:cis[6,9,12]3), ratio versus control: 1.44*
[1]; [4]
  5-Oxoproline, ratio versus control: 0.56*
  Glutamine, ratio versus control: 0.49*
[1]; [5]
  4-Hydroxyphenylpyruvate, ratio versus control: 25.92*
  Glycine, ratio versus control: 1.24*
  Phosphatidylcholine (C18:0,C18:2), ratio versus control: 1.12*
  Serine, ratio versus control: 1.18*
  TAG (C16:0,C18:2), ratio versus control: 2.2*
  TAG (C18:1,C18:2), ratio versus control: 2.89*
  TAG (C18:2,C18:2), ratio versus control: 2.47*
  Threonine, ratio versus control: 1.33*
  Tyrosine, ratio versus control: 16.29*
  gamma-Linolenic acid (C18:cis[6,9,12]3), ratio versus control: 1.55*
[1]; [6]
  5-Oxoproline, ratio versus control: 0.68*
  Glutamine, ratio versus control: 0.53*
[1]; [7]
  4-Hydroxyphenylpyruvate, ratio versus control: 24.95*
  Glycine, ratio versus control: 1.25*
  Phosphatidylcholine (C18:0,C18:2), ratio versus control: 1.11*
  Serine, ratio versus control: 1.14*
  TAG (C16:0,C18:2), ratio versus control: 2.44*
  TAG (C18:1,C18:2), ratio versus control: 3.2*
  TAG (C18:2,C18:2), ratio versus control: 2.77*
  Threonine, ratio versus control: 1.24*
  Tyrosine, ratio versus control: 12.88*
  gamma-Linolenic acid (C18:cis[6,9,12]3), ratio versus control: 1.77*
[1]; [8]
  5-Oxoproline, ratio versus control: 0.58*
  Glutamine, ratio versus control: 0.52*
[1]; [9]
  4-Hydroxyphenylpyruvate, ratio versus control: 31.22*
  Lysine, ratio versus control: 1.23*
  Threonine, ratio versus control: 1.16*
  Tyrosine, ratio versus control: 21.56*
[1]; [10]
  5-Oxoproline, ratio versus control: 0.5*
  Citrulline, ratio versus control: 0.73*
  Glutamine, ratio versus control: 0.41*
  Phenylalanine, ratio versus control: 0.79*
[1]; [11]
  4-Hydroxyphenylpyruvate, ratio versus control: 34.78*
  Lysine, ratio versus control: 1.32*
  Threonine, ratio versus control: 1.2*
  Tyrosine, ratio versus control: 18.22*
[1]; [12]
  5-Oxoproline, ratio versus control: 0.58*
  Citrulline, ratio versus control: 0.72*
  Glutamine, ratio versus control: 0.43*
  Phenylalanine, ratio versus control: 0.9*
[1]; [13]
  4-Hydroxyphenylpyruvate, ratio versus control: 25.05*
  Lysine, ratio versus control: 1.29*
  Threonine, ratio versus control: 1.5*
  Tyrosine, ratio versus control: 14.42*
[1]; [14]
  5-Oxoproline, ratio versus control: 0.54*
  Citrulline, ratio versus control: 0.8*
  Glutamine, ratio versus control: 0.41*
  Phenylalanine, ratio versus control: 0.82

## CS(=O)(=O)c1ccc(C(=O)C2C(=O)CCCC2=O)c(Cl)c1 [sulcotrione]
[2]
  corneal lesions: corneal lesions that varied in severity from partial or hazy opacity to complete opacity

## Lead acetate trihydrate
[1]; male rats, day 7 (m7)
  5-Oxoproline, plasma metabolite ratio versus control: 0.88
  Alanine, plasma metabolite ratio versus control: 0.68
  Arginine (second line of the table), plasma metabolite ratio versus control: 0.91
  Arginine, plasma metabolite ratio versus control: 0.86
  Citrulline, plasma metabolite ratio versus control: 0.94
  Glutamine, plasma metabolite ratio versus control: 0.83
  Proline, plasma metabolite ratio versus control: 0.88
  Tyrosine, plasma metabolite ratio versus control: 0.92
[1]; male rats, day 14 (m14)
  5-Oxoproline, plasma metabolite ratio versus control: 0.92
  Alanine, plasma metabolite ratio versus control: 0.75
  Arginine (second line of the table), plasma metabolite ratio versus control: 0.90
  Arginine, plasma metabolite ratio versus control: 0.87
  Citrulline, plasma metabolite ratio versus control: 0.90
  Glutamine, plasma metabolite ratio versus control: 0.83
  Proline, plasma metabolite ratio versus control: 0.84
  Tyrosine, plasma metabolite ratio versus control: 0.88
[1]; male rats, day 28 (m28)
  5-Oxoproline, plasma metabolite ratio versus control: 0.86
  Alanine, plasma metabolite ratio versus control: 0.75
  Arginine (second line of the table), plasma metabolite ratio versus control: 0.89
  Arginine, plasma metabolite ratio versus control: 0.90
  Citrulline, plasma metabolite ratio versus control: 0.91
  Glutamine, plasma metabolite ratio versus control: 0.87
  Proline, plasma metabolite ratio versus control: 0.88
  Tyrosine, plasma metabolite ratio versus control: 0.90
[1]; male rats, day 7, high dose
  Creatinine, ratio versus control: 1.16
[1]; male rats, day 14, high dose
  Creatinine, ratio versus control: 1.32
[1]; male rats, day 28, high dose
  Creatinine, ratio versus control: 1.66
